{"source": "patent US6635757B1", "about": "“Process for preparing cyclodextrin inclusion complex” (Vittal Mallya Scientific Research Foundation, priority 2001, dated 2003)", "origin": "cited, not measured here"}
{"smiles": "C/C=C(\\C)C(=O)O[C@H]1C[C@@H](OC(C)=O)[C@@]2(C(=O)OC)CO[C@H]3[C@@H](O)[C@@](C)([C@]45O[C@@]4(C)[C@@H]4C[C@H]5O[C@@H]5OC=C[C@@]54O)[C@H]4[C@]1(CO[C@]4(O)C(=O)OC)[C@@H]32", "note": "[Azadirachtin-A]", "values": [{"measurement": "Activity compared with NSKE (containing azadirachtin-A<70%)", "setting": "insects; azadirachtin-A of 99% purity", "value": "not as active as NSKE"}]}
{"smiles": "C/C=C(\\C)C(=O)O[C@H]1C[C@@H](OC(C)=O)[C@@]2(C(=O)OC)CO[C@H]3[C@@H](O)[C@@](C)([C@]45O[C@@]4(C)[C@H]4C[C@@H]5O[C@@H]5OC=C[C@@]54O)[C@H]4[C@]1(CO[C@]4(O)C(=O)OC)[C@@H]32", "note": "[Azadirachtin]", "values": [{"measurement": "Sensitivity to sunlight", "value": "extremely sensitive"}, {"measurement": "Physiological concentration required to elicit growth retardation", "setting": "insects; varies from species to species", "value": "1-100 ppm"}]}
